Data reported in patent US20120148509A1, “COMPOSITION FOR ALLEVIATING ULTRAVIOLET IRRADIATION-INDUCED DAMAGE” (Shiseido Company, Ltd., priority 2009, published 2012).
Read-outs that look alike come from different tables or passages of the source.

What was measured:
[1] = tested on: human neonatal dermal fibroblast; assay: UV-A irradiation-induced cell damage, amino acid added after irradiation (Alamar Blue); type: cell-based; settings: for percentage of the viable cell: UV-A 8 J/cm^2, FIG. 3; for fluorescent intensity of Alamar Blue: without irradiation 764, negative control 348
Description: (§1) The cell employed was a commercially available human neonatal dermal fibroblast (Cryo NHDF-Neo, Sanko-Junyaku Co., Ltd.). This cell was inoculated at 2×10^5 cells/mL to a commercially available culture dish of 35 mm in diameter (BD FALCON 353001, Becton Dickinson Japan), where it was cultured in a commercially available cell culture medium (D-MEM (1 g/L glucose, Wako Pure Chemical Industries, Ltd.) supplemented with 10% fetal bovine serum (hereinafter, referred to as “normal medium”). The cell described above may be cultured in the normal medium described above supplemented with an antibiotic (15240-062, Gibco) at 1%. This cell was cultured for about 24 hours in a 5% CO2 and saturated water vapor atmosphere at 37° C. (degrees Celsius).
(§2) Thereafter, the culture medium for culturing the cell described above was switched to 1 mL of a BSO medium supplemented with a glutathione biosynthesis inhibitor BSO (L-buthionine-(S,R)-sulfoximine, Wako Pure Chemical Industries, Ltd.) at 1×10^−3%, where the culture was conducted for about 24 hours in a 5% CO2 and saturated water vapor atmosphere at 37° C. (degrees Celsius). The BSO medium described above was prepared by a 200-fold dilution of a stock solution containing 0.2% BSO dissolved in ethyl alcohol with the normal medium described above.
(§3) […] was dissolved in a distilled water at 2×10^−3%, and the resultant solution was subjected to a 200-fold dilution (final concentration: 1×10^−5%) with a phosphate buffered saline PBS (+) containing calcium ion and magnesium ion to obtain a medium (hereinafter, referred to as “UV irradiation medium”), which was warmed preliminarily to 37° C. before use.
(§4) Before UV-A irradiation, the culture medium was replaced with 1 mL of the UV irradiation medium described above. […] The UV dose was measured using UV RADIOMETER UVR-3036/S (Topcon Corporation).
After UV-A irradiation at 8 J/cm^2, the medium was returned to the normal medium described above, and the culture was conducted in a 5% CO2 and saturated water vapor atmosphere at 37° C. (degrees Celsius) for 40 hours. For determining the effect of adding methionine after UV irradiation (hereinafter, referred to as “post-irradiation addition of methionine”), this 40-hour cultured medium was added with 0.001 to 100 μM (micro-molar) L- or D-methionine. The ultraviolet irradiation after switching into a medium added with 0.1 μM (micro-molar) D-proline was employed as a positive control, while the ultraviolet irradiation to the medium still being free of such an added amino acid was employed as a negative control.
(§5) Thereafter, the culture medium was supplemented with Alamar Blue (trade mark, Biosource, Biosource International Inc. and Invitrogen) at a final concentration of […], and its supernatant was determined for the fluorescent intensity three hours later with an excitation wavelength of 544 nm and a fluorescent wavelength of 590 nm as described by Ahmed S. A. et al. J. Immunol. Method. 170, 211-224 (1994)) and in accordance with the manufacture's instruction. The percentage of the viable cell was obtained as a percentage of a quotient calculated by dividing the fluorescent intensity of Alamar Blue under each experimental condition by the fluorescent intensity in the negative control group containing no added amino acid.
(§6) the cell culture, the addition of amino acids before the UV irradiation, the UV irradiation, the addition of amino acids after the UV irradiation and the cell damage measurement were conducted similarly to Example 1. The ultraviolet light (UV-A) was irradiated at 7.5 or 9 J/cm^2.

[2] = tested on: human neonatal dermal fibroblast; settings: for percentage of the viable cell: human, 24 h; for fluorescent intensity of Alamar Blue / effect on cell damage, in words: UV-A 9 J/cm^2, FIG. 4; for fluorescent intensity of Alamar Blue: without irradiation 794, negative control 140; for effect on cell damage, in words: pre-irradiation addition
Description: as §1, §2
For determining the effect of adding methionine before ultraviolet irradiation (hereinafter, referred to as “pre-irradiation addition of methionine”), the culture medium was switched to a BSO medium added with 0.0001 to 100 (micro-molar) L-methionine (131-01603, Wako Pure Chemical Industries Ltd.) or D-methionine (2807, Peptide Institute Inc.) 24 hours before the irradiation. The ultraviolet irradiation after switching into a medium added with 0.1 μM (micro-molar) D-proline (165-14671, Wako Pure Chemical Industries Ltd.) was employed as a positive control, while the ultraviolet irradiation to the medium still being free of such an added amino acid was employed as a negative control.
as §3, §4, §5, §6

[3] = post-irradiation addition 0.1 μM
[4] = post-irradiation addition 0.1 μM, UV-A 7.5 J/cm^2, FIG. 6
[5] = pre-irradiation addition 0.1 μM

SMILES | percentage of the viable cell [1, 3] [%] | percentage of the viable cell ([2]; 0.0001 μM) [%] | percentage of the viable cell ([2]; 0.01 μM) [%] | percentage of the viable cell ([2]; 1 μM) [%] | percentage of the viable cell ([2]; 10 μM) [%] | percentage of the viable cell ([2]; 100 μM) [%] | fluorescent intensity of Alamar Blue [1, 4] | fluorescent intensity of Alamar Blue [2, 5] | fluorescent intensity of Alamar Blue ([2]; pre-irradiation addition 1 μM) | fluorescent intensity of Alamar Blue ([2]; pre-irradiation addition 10 μM) | effect on cell damage, in words [2] | also measured
CSCC[C@@H](N)C(=O)O [D-methionine] | 84 | 50 | 102 | 97 | 114 | 76 |  |  |  |  |  | percentage of the viable cell ([1]; post-irradiation addition 0.01 μM): 93%; percentage of the viable cell ([1]; post-irradiation addition 1 μM): 82%; percentage of the viable cell ([1]; post-irradiation addition 10 μM): 81%; percentage of the viable cell ([1]; post-irradiation addition 100 μM): about 87%
O=C(O)[C@H]1CCCN1 [D-proline, reference compound] | 82 |  |  |  |  |  | 579 | 610 |  |  |  | 
N[C@H](CO)C(=O)O [D-serine] |  | 74 | 92 |  | 93 |  | 735 | 402 | 371 | 491 | statistically significant increase in the fluorescent intensity | fluorescent intensity of Alamar Blue ([1]; post-irradiation addition 0.01 μM, UV-A 7.5 J/cm^2, FIG. 6): 697; fluorescent intensity of Alamar Blue ([1]; post-irradiation addition 1 μM, UV-A 7.5 J/cm^2, FIG. 6): 742; fluorescent intensity of Alamar Blue ([1]; post-irradiation addition 10 μM, UV-A 7.5 J/cm^2, FIG. 6): 664; fluorescent intensity of Alamar Blue ([1]; post-irradiation addition 100 μM, UV-A 7.5 J/cm^2, FIG. 6): 663; effect on cell damage, in words ([1]; post-irradiation addition, UV-A 7.5 J/cm^2, FIG. 6): statistically significant increase in the fluorescent intensity; fluorescent intensity of Alamar Blue ([2]; pre-irradiation addition 0.01 μM): 445
CSCC[C@H](N)C(=O)O [L-methionine] |  |  | 72 | 45 | 73 | 62 |  |  |  |  |  | percentage of the viable cell ([2]; 0.001 μM): 40%; percentage of the viable cell ([2]; 0.1 μM): 67%
N[C@@H](CO)C(=O)O [L-serine, reference compound] |  |  |  |  |  |  |  | 265 | 227 | 270 | almost no reduction in the cell damage | 
